Data: BigSolDB 2.1

Nc1cccc2c1C(=O)N(C1CCC(=O)NC1=O)C2=O (stereo unspecified)
solubility (mole fraction)
Conditions | 278.15 K | 283.15 K | 288.15 K | 293.15 K | 298.15 K | 303.15 K | 308.15 K | 313.15 K | 318.15 K
in acetone | 1.43e-06 | 2e-06 | 2.59e-06 | 3.32e-06 | 4.27e-06 | 5.32e-06 | 6.53e-06 | 7.84e-06 | 9.49e-06
in ethanol | 1.8e-07 | 2.4e-07 | 3.1e-07 | 4.1e-07 | 5.3e-07 | 6.8e-07 | 8.5e-07 | 1.04e-06 | 1.26e-06
in ethyl acetate | 4.5e-07 | 6.6e-07 | 9.3e-07 | 1.21e-06 | 1.55e-06 | 1.95e-06 | 2.38e-06 | 2.96e-06 | 3.62e-06
in isopropanol | 2.3e-07 | 3.4e-07 | 4.8e-07 | 6.3e-07 | 8.1e-07 | 1.02e-06 | 1.26e-06 | 1.56e-06 | 1.9e-06
